Data published in patent publication US10738074B2, “Cyclic di-nucleotide compounds as STING agonists” (Merck Sharp & Dohme Corp., priority 2015, dated 2020).
Read-outs that look alike come from different tables or passages of the source.

Columns and labels:
[1] = system: THP1 cells; experiment: IFN-β secretion in THP1 cell culture (5 h); format: cell-based, human; conditions: Homo sapiens, THP-1, 5 h
Procedure: The ability of compounds to stimulate the secretion of interferon-beta from THP1 cells was measured using a human IFN-β AlphaLISA kit (Perkin Elmer, Cat. No. AL265F). The basic protocol is as follows:
A Labcyte Echo 550 acoustic dispenser was used to transfer 120 nL of compound dissolved in DMSO into the wells of an empty, sterile 384-well microplate, (Corning, Cat. No. 3712). THP1 cells (American Type Culture Collection, Cat. No. TIB202) previously frozen in Recovery Medium (Life Technologies, Cat. No. 12648-010) were thawed and immediately diluted 10-fold into 37° C. assay medium (RPMI 1640+L-Glutamine & phenol red, Life Technologies, Cat. No. 11875-085; 0.5% heat inactivated fetal bovine serum, Sigma Aldrich, Cat. No. F4135; 1 mM Sodium Pyruvate, Life Technologies, Cat. No. 11360-070; lx non-essential amino acids; Life Technologies, Cat. No. 11140-050). The cell viability and count was ascertained using a Beckman Coulter V-Cell XR cell counter. The cells suspension was centrifuged at 200×g for 5 min at RT. Cells were resuspended to a density of 0.8×10^6/mL in 37° C. assay medium. Subsequent liquid transfers were performed using either a Matrix electronic multichannel pipette or an Agilent Bravo Automated Liquid Handling Platform.
The assay was started by dispensing 40 μL of the previously prepared cell suspension into the wells of the plate containing compounds. After 5 h incubation at 37° C., 5% CO2 in a humidified atmosphere, the plate of cells and compounds was centrifuged at 200×g for 5 min at RT. From each well, 5 μL of supernatant was transferred into corresponding wells of a white 384-well plate (Perkin Elmer, Cat. No. 6005620). To these supernatant-containing wells was added 10 μL of 5× Anti-Analyte Acceptor beads (50 μg/mL of AlphaLISA HiBlock Buffer) and incubated for 30 min at RT while shaking on an orbital plate shaker. To each well was added 10 μL of 5× Biotinylated Antibody Anti-analyte (5 nM in AlphaLISA HiBlock Buffer) and incubated on an orbital plate shaker for 60 min at RT or overnight at 4° C. To each well was added 25 μL of 2× SA-Donor beads (80 μg/mL in AlphaLISA HiBlock Buffer) and incubated for 30-45 min at RT in the dark while shaking on an orbital plate shaker. The plate was then read on a Perkin Elmer Envision (λex=680 nm, λem=[…]). The percent effect of the AlphaLISA signal at each compound concentration was calculated based on 30 uM cGAMP positive controls and 0.3% DMSO negative controls. The plot of percent effect versus the log of compound concentration was fit with a 4-parameter concentration response equation to calculate EC50 values. The test compounds were tested at concentrations 30000, 10000, 3333, 1111, 370.4, 123.4, 41.2, 13.7, 4.6, and 1.5 nM with 0.3% residual DMSO.
Compounds of the disclosure were evaluated for IFN-β secretion in THP1 cell culture as described above. The following table tabulates the biological data for these compounds as percent activation relative to 2′3′-cGAMP at the 30 μM concentration.

[2] = target: full-length HAQ STING (Homo sapiens (Human), UniProt Q86WV6, G230A/H232R/R293Q/R71H); experiment: 3H-cGAMP filtration binding assay (HAQ STING); conditions: competition with tritiated cGAMP, HAQ STING membrane
Text: (§1) The ability of compounds to bind STING is quantified by the ability to compete with tritiated cGAMP ligand for human STING receptor membrane using a radioactive filter-binding assay. The binding assay employs STING receptor obtained from Hi-Five cell membranes overexpressing full-length HAQ STING prepared in-house and tritiated cGAMP ligand also purified in-house.
as §1, with “their” for “the”, “Trichoplusia ni” for “Hi-Five”, “membranes (Tni; Expression Systems, cat #94-002F, www.exrpressionsystems.com)” for “membranes”
The basic HAQ STING filtration assay protocol is as follows:
Compound and membrane then preincubated for 60 min at RT to allow compound binding to equilibrate. Following equilibration, 8 nM of [^3H] c-GAMP ligand was prepared by diluting into assay buffer, and 50 uL of this working stock was then manually added to each well of the assay plate. […] The filter plates were then dried at 55° C. for 30 min using a pressurized VWR oven before 30 uL of Ultima GoldF scintillate was added to each well. Tritium levels for each reaction well were then measured using a PerkinElmer TopCount plate reader.
After normalization to controls, the percent activity for each compound concentration was calculated by measuring the amount of remaining radioactivity. The plot of percent activity versus the log of compound concentration was fit with a 4-parameter dose response equation to calculate EC50 values.

[3] = IFN-β secretion, THP1 cells, 5 h, 30 μM, read-out: % Effect at 30 μM relative to 2′3′-cGAMP

Chain of full-length HAQ STING (Q86WV6 other isoform, or with tags, fused parts or gaps, stated change not applied): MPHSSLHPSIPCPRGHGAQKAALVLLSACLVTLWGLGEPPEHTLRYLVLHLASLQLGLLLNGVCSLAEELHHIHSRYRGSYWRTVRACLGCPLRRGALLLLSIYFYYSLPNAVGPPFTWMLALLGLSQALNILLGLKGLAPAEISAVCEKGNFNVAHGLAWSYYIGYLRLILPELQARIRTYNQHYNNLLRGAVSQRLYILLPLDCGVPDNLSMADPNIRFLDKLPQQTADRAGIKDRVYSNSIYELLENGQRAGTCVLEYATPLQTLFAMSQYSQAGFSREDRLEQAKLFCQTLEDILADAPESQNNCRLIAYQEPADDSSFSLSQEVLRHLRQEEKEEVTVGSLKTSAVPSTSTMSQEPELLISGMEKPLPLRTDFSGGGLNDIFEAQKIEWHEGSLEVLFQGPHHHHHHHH

| Structure (SMILES) | activation at 30 µM ([1]; read-out: % Effect at 30 μM relative to 2′3′-cGAMP, IFN-β secretion, THP1 cells, 5 h, 30 μM) [%] | activation at 30 µM [1, 3] [%] | EC50 [2] [nM] |
| --- | --- | --- | --- |
| [N-]=[N+]=N[C@H]1[C@H]2OP(O)(=S)OC[C@H]3O[C@@H](n4cnc5c(=O)[nH]c(N)nc54)[C@H](OP(O)(=S)OC[C@H]1O[C@H]2n1cnc2c(N)ncnc21)[C@@H]3F (single isomer, unassigned) [Example 18] | 118 |  |  |
| Nc1nc2c(ncn2[C@@H]2O[C@@H]3COP(=O)(S)O[C@@H]4[C@H](O)[C@@H](COP(=O)(S)O[C@@H]2[C@@H]3O)O[C@H]4n2cnc3c(=O)[nH]c(N)nc32)c(=O)[nH]1 (single isomer, unassigned) [Example 25] |  | 89 |  |
| Nc1nc2c(ncn2[C@@H]2O[C@@H]3COP(=O)(S)OC4C(O)[C@@H](COP(=O)(S)OC2[C@@H]3O)O[C@H]4n2cnc3c(N)ncnc32)c(=O)[nH]1 (stereo in doubt) [Example 15, 2-amino-9-[(1R,6R,8R,9R,14R,16R,17R,18R)-16-(6-amino-9H-purin-9-yl)-17,18-dihydroxy-3,11-dioxido-3,11-disulfanyl-2,4,7,10,12,15-hexaoxa-3,11-diphosphatricyclo[12.2.1.1^6,9]octadec-8-yl]-1,9-dihydro-6H-purin-6-one] |  | 132 |  |
| Nc1nc2c(ncn2[C@@H]2O[C@@H]3COP(=O)(O)O[C@@H]4C[C@@H](COP(=O)(O)O[C@@H]2[C@@H]3O)O[C@H]4n2cnc3c(N)ncnc32)c(=O)[nH]1 [Example 1, 2-amino-9-[(1R,6R,8R,9R,14S,16R,18R)-16-(6-amino-9H-purin-9-yl)-3,11,18-trihydroxy-3,11-dioxido-2,4,7,10,12,15-hexaoxa-3,11-diphosphatricyclo[12.2.1.1^6,9]octadec-8-yl]-1,9-dihydro-6H-purin-6-one] |  | 121 | 19 |
| Nc1nc2c(ncn2[C@@H]2O[C@@H]3COP(=O)(O)O[C@@H]4[C@H](O)[C@@H](COP(=O)(O)O[C@@H]2C3)O[C@H]4n2cnc3c(N)ncnc32)c(=O)[nH]1 [Example 2, 2-amino-9-[(1R,6S,8R,9R,14R,16R,17R)-16-(6-amino-9H-purin-9-yl)-3,11,17-trihydroxy-3,11-dioxido-2,4,7,10,12,15-hexaoxa-3,11-diphosphatricyclo[12.2.1.1^6,9]octadec-8-yl]-1,9-dihydro-6H-purin-6-one] |  | 123 | 18.2 |
| Nc1nc2c(ncn2[C@@H]2O[C@@H]3COP(=O)(O)O[C@@H]4[C@H](O)[C@@H](COP(=O)(O)O[C@@H]2[C@@H]3F)O[C@H]4n2cnc3c(N)ncnc32)c(=O)[nH]1 [Example 3, 2-amino-9-[(1R,6R,8R,9S,14R,16R,17R,18R)-16-(6-amino-9H-purin-9-yl)-18-fluoro-3,11,17-trihydroxy-3,11-dioxido-2,4,7,10,12,15-hexaoxa-3,11-diphosphatricyclo[12.2.1.1^6,9]octadec-8-yl]-1,9-dihydro-6H-purin-6-one] |  | 150 | 3.6 |
| Nc1nc2c(ncn2[C@@H]2O[C@@H]3COP(=O)(O)O[C@@H]4[C@H](F)[C@@H](COP(=O)(O)O[C@@H]2[C@@H]3O)O[C@H]4n2cnc3c(N)ncnc32)c(=O)[nH]1 [Example 4, 2-amino-9-[(1S,6R,8R,9R,14R,16R,17R,18R)-16-(6-amino-9H-purin-9-yl)-17-fluoro-3,11,18-trihydroxy-3,11-dioxido-2,4,7,10,12,15-hexaoxa-3,11-diphosphatricyclo[12.2.1.1^6,9]octadec-8-yl]-1,9-dihydro-6H-purin-6-one] |  | 104 | 1.8 |
| [N-]=[N+]=N[C@H]1[C@H]2OP(=O)(O)OC[C@H]3O[C@@H](n4cnc5c(N)ncnc54)[C@H](OP(=O)(O)OC[C@H]1O[C@H]2n1cnc2c(=O)[nH]c(N)nc21)[C@@H]3O [Example 5, 2-amino-9-[(1R,6S,8R,9R,14R,16R,17R,18R)-16-(6-amino-9H-purin-9-yl)-18-azido-3,11,17-trihydroxy-3,11-dioxido-2,4,7,10,12,15-hexaoxa-3,11-diphosphatricyclo[12.2.1.1^6,9]octadec-8-yl]-1,9-dihydro-6H-purin-6-one] |  | 145 | < 1 |
| C[C@H]1OP(=O)(O)O[C@@H]2[C@H](F)[C@@H](COP(=O)(O)O[C@@H]3[C@H](O)[C@@H]1O[C@H]3n1cnc3c(N)ncnc31)O[C@H]2n1cnc2c(=O)[nH]c(N)nc21 [Example 7, 2-amino-9-[(1R,6R,8R,9S,13R,14S,16R,17R,18R)-16-(6-amino-9H-purin-9-yl)-18-fluoro-3,11,17-trihydroxy-13-methyl-3,11-dioxido-2,4,7,10,12,15-hexaoxa-3,11-diphosphatricyclo[12.2.1.16,9]octadec-8-yl]-1,9-dihydro-6H-purin-6-one] |  | 59 | 45.2 |
| Nc1nc2c(ncn2[C@@H]2O[C@@H]3COP(=O)(O)O[C@@H]4[C@H](F)[C@@H](COP(=O)(O)O[C@@H]2C3)O[C@H]4n2cnc3c(N)ncnc32)c(=O)[nH]1 [Example 10, 2-amino-9-[(1S,6S,8R,9R,14R,16R,17R)-16-(6-amino-9H-purin-9-yl)-17-fluoro-3,11-dihydroxy-3,11-dioxido-2,4,7,10,12,15-hexaoxa-3,11-diphosphatricyclo[12.2.1.1^6,9]octadec-8-yl]-1,9-dihydro-6H-purin-6-one] |  | 87 |  |
| Nc1nc2c(ncn2[C@@H]2O[C@@H]3COP(=O)(S)O[C@@H]4[C@H](O)[C@@H](COP(=O)(S)O[C@@H]2[C@@H]3O)O[C@H]4n2cnc3c(N)ncnc32)c(=O)[nH]1 (stereo partly drawn) [Example 14, 2-amino-9-[(1R,6R,8R,9R,14R,16R,17R,18R)-16-(6-amino-9H-purin-9-yl)-17,18-dihydroxy-3,11-dioxido-3,11-disulfanyl-2,4,7,10,12,15-hexaoxa-3,11-diphosphatricyclo[12.2.1.1^6,9]octadec-8-yl]-1,9-dihydro-6H-purin-6-one] |  | 150 |  |
| Nc1nc2c(ncn2[C@@H]2O[C@@H]3COP(=O)(O)O[C@@H]4[C@H](O)[C@@H](COP(=O)(O)O[C@@H]2[C@@H]3N)O[C@H]4n2cnc3c(N)ncnc32)c(=O)[nH]1 [Example 32, 2-amino-9-[(1R,6S,8R,9R,14R,16R,17R,18R)-18-amino-16-(6-amino-9H-purin-9-yl)-3,11,17-trihydroxy-3,11-dioxido-2,4,7,10,12,15-hexaoxa-3,11-diphosphatricyclo[12.2.1.1^6,9]octadec-8-yl]-1,9-dihydro-6H-purin-6-one] |  |  | 1.9 |
